Assay results as given in US20240209022A1, “NOVEL PEPTIDE HAVING ANTI-INFLAMMATORY AND TISSUE REGENERATIVE ACTIONS” (KOREA RESEARCH INSTITUTE OF BIOSCIENCE AND BIOTECHNOLOGY, priority 2020, published 2024).

Columns and labels:
[1] = tested on: MIA-induced degenerative arthritis model; experiment: MIA-induced degenerative arthritis model; assay type: in vivo, C57BL/6J mice; conditions: vs PBS buffer group; for diameter of the knee joint: day 1 after MIA injection, i.p.
Experimental: As a degenerative arthritis model, 9-week-old specific pathogen free (SPF) male C57BL/6J mice were anesthetized, the area around the right knee joint was cleanly shaved, and 10 μL of MIA solution (monosodium iodoacetate 0.5 mg in 10 μL 0.9% sterile saline) was injected into the knee joint cavity to induce arthritis. From 3 days before MIA (monosodium iodoacetate) solution injection, Amuc_1409 or PEP001, PEP002, PEP003, PEP004, PEP005, PEP006, PEP007, PEP008, PEP009, PEP010, PEP011, PEP012, or PEP013 was dissolved in PBS buffer at a concentration of 6.7 μM and then injected into the mouse peritoneal cavity at 150 μL per animal once a day at the same time. On day 3 (0 days) after administration of Amuc_1409 or PEP001 to PEP013, an additional intraperitoneal injection was given 1 hour before MIA injection, the drug was intraperitoneally injected once a day at the same time after MIA injection, and the experiment was terminated on the 30th day after MIA injection. In the control group, the same volume of PBS buffer was injected intraperitoneally. After MIA injection, the diameter of the knee joint was measured using a caliper for 7 days at 2-day intervals (0, 1, 3, 5, and 7 days) to evaluate swelling caused by inflammatory changes of the joint. […] At this time, the weight bearing on the limb was lower as arthritis was more severe. The weight-bearing weight (g) of each of both paws was measured, and in this experiment, the value was expressed as the ratio (%) of the right hind limb with arthritis to the total hind limb. Weight bearing ratio (%)=weight-bearing weight of right hind limb with arthritis (g)/weight-bearing weight of both hind limbs (g)×100 After termination of the experiment, the test animals were sacrificed, then the knee joint tissue of the mouse was fixed with 10% neutral buffered formalin, and the bone was decalcified with a 0.5 M EDTA solution. Next, the joint tissue was embedded in paraffin to prepare a 5 μm joint section, and Safranin O staining was performed to histopathologically analyze the degree of damage to the cartilage tissue. At this time, the degree of damage to the cartilage tissue was evaluated by examining the degree of safranin O staining of the sections and scored according to OARSI (Osteoarthritis Research Society International grade) guidelines. The scoring criteria according to the OARSI guidelines are as follows (Table 1). [table]

[2] = tested on: C57BL/6 mice with telogen hair; experiment: Hair growth promotion on shaved dorsal skin; assay type: in vivo; conditions: day 28 after application; 30 μM topical; vs vehicle
Experimental: In order to examine the hair growth promoting efficacy, 8-week-old C57BL/6 mice with telogen hair having pink dorsal skin were used. The mice were anesthetized, then the hair on the back of the mouse was removed using an electric hair clipper for animals. Amuc_1409 was dissolved in vehicle (50% ethanol, 20% propylene glycol, 30% water) at a concentration of 3.2 μM and then applied to the skin of the hair-removed site by 200 μL per animal using a pipette once a day for 21 days, and PEP006 to PEP013 were each dissolved in vehicle (50% ethanol, 20% propylene glycol, 30% water) at a concentration of 30 μM and then applied to the skin of the hair-removed site by 200 μL per animal using a pipette once a day for 28 days. For the control group, the same volume of vehicle (50% ethanol, 20% propylene glycol, 30% water) was applied to the skin.
Skin color and hair density were visually observed, scored according to the scoring criteria in Table 5, and graphed (Table 5).
After the experiment, the test animals were sacrificed, then the skin tissue of the mouse was fixed in 10% NBF at room temperature for 24 hours or more, and then embedded in paraffin to prepare a 5 μm-thick section, and the section was stained with (H&E) hematoxylin and eosin. The histological changes of the hair follicle tissue in the H&E-stained tissue sections were observed under an optical microscope. The number and depth of hair follicles and the thicknesses of dermis and subcutis were measured under an optical microscope, and the hair growth cycle was evaluated. The number of hair follicles was calculated by counting the number of hair follicles present in the subcutaneous tissue under a 100-magnification optical microscope. Changes in the depth of hair follicles and the thicknesses of dermis and subcutis were measured using the Image J program using a scale bar.

[3] = tested on: small intestine organoid; experiment: Small intestine organoid sprouting; assay type: cell-based, C57BL/6J mice; conditions: 16 nM on days 0, 2, 4; day 5 of culture; vs PBS buffer
Experimental: In order to establish a small intestine organoid model, the small intestine of 15-week-old male C57BL/6J mice was cut longitudinally from the proximal end to the distal end, and cut transversely into about 5 mm long pieces. The small intestine tissue thus obtained was washed with refrigerated PBS containing 1% penicillin. Thereafter, the washed small intestine tissue was treated with dissociation buffer and filtered through a cell strainer to isolate crypts. The isolated crypt was cultured in Matrigel and Organoid Growth Medium (Intesticult™) mixed at a ratio of 1:1, Matrigel was solidified at 37° C. for 20 minutes in a 12 well plate, and then medium (500 μL/well) was added. The medium was replaced after 4 days, and subculture was performed on day 7.
For novel peptide screening, organoids 3D cultured in medium and Matrigel support were dispensed into 3 wells per group using a 12-well plate and 50 organoids per well. On days 0, 2, and 4 of culture, the organoids were treated with novel tetrapeptides PEP006, PEP007, PEP008, PEP009, and PEP010 and novel tripeptides PEP011, PEP012, and PEP013 at a concentration of 16 nM as described above, and the number of lobes of sprouted organoids on day 5 of culture was examined and analyzed for comparison. The control group was treated with PBS buffer in the same manner.

[4] = tested on: full-thickness skin defect wound-induced model; experiment: Full-thickness skin defect wound-induced model (tail); assay type: in vivo, C57BL/6J mice; conditions: 120 μM, 25 μL applied once a day for 28 days; vs vehicle
Experimental: In order to confirm the tissue regeneration efficacy of the novel peptides, an experiment was conducted using a wound-induced model induced by a full-thickness skin defect of mouse's tail. For a full-thickness skin defect wound-induced model, 9-week-old specific pathogen free (SPF) male C57BL/6J mice were anesthetized, and then in order to indicate full-thickness wounding, a full-thickness wound with a size of 10 mm×3 mm was made on the dorsal part of the mouse's tail, about 1.0 cm away from the base of the mouse's tail, using an aseptic dissection mass No. 10. Bleeding was stopped by compressing the wound, and the wound was covered with a film spray dressing (Cavilon, 3M). For 28 days from the day of wound induction, Amuc_1409 or PEP001 to PEP013 were each dissolved in vehicle (50% ethanol, 20% propylene glycol, 30% water) at a concentration of 120 μM and then applied to the wound site by 25 μL per animal once a day. For the control group, the same volume of vehicle (50% ethanol, 20% propylene glycol, 30% water) was applied to the wound site. The test was terminated on day 29 after wound induction. In order to observe the wound healing effect, the wound sites of animals in each test group were individually photographed using a digital camera at a constant height from the wound for 28 days at 7-day intervals from the day of wound induction, and the wound area was measured using the Image J Soft program.

Row | Substance | weight bearing ratio ([1]; 2 weeks after MIA injection) | weight bearing ratio ([1]; 4 weeks after MIA injection) | diameter of the knee joint [1] | thickness of the knee joint ([1]; day 3 after MIA injection) | thickness of the knee joint ([1]; day 5 after MIA injection) | thickness of the knee joint ([1]; day 7 after MIA injection) | proportion of the area where hair grew out to the total area (hair growth score) [2] | number of lobes of sprouted organoids [3] | wound area [4] | wound size (visually confirmed) [4]
1 | RGAY (PEP007) | significantly increased | significantly increased | significantly decreased | significantly decreased | tended to decrease | significantly decreased | tended to increase | significantly increased | significantly decreased | rapidly decreased
2 | IGAY (PEP008) | significantly increased | significantly increased | significantly decreased | significantly decreased | significantly decreased | significantly decreased | tended to increase | significantly increased | significantly decreased | rapidly decreased
